Assays:
[1] = molecular target: CYP2D6 (Homo sapiens, UniProt P10635); assay: Single point CYP450 inhibition test; type: in vitro ADME; details: for inhibition at 10 µM: human, CYP2D6 % inhibition
[2] = test system: downstream targets of mTOR, S6K, and Akt; assay: In vivo pharmacodynamic study; details: liver and lung tissues, after 6h, 20 mg/kg
[3] = molecular target: T1, P110δ/P85α (Homo sapiens, UniProt O00329); assay: Ambit KINOMEscan; type: binding
T1 sequence (O00329 1-1044): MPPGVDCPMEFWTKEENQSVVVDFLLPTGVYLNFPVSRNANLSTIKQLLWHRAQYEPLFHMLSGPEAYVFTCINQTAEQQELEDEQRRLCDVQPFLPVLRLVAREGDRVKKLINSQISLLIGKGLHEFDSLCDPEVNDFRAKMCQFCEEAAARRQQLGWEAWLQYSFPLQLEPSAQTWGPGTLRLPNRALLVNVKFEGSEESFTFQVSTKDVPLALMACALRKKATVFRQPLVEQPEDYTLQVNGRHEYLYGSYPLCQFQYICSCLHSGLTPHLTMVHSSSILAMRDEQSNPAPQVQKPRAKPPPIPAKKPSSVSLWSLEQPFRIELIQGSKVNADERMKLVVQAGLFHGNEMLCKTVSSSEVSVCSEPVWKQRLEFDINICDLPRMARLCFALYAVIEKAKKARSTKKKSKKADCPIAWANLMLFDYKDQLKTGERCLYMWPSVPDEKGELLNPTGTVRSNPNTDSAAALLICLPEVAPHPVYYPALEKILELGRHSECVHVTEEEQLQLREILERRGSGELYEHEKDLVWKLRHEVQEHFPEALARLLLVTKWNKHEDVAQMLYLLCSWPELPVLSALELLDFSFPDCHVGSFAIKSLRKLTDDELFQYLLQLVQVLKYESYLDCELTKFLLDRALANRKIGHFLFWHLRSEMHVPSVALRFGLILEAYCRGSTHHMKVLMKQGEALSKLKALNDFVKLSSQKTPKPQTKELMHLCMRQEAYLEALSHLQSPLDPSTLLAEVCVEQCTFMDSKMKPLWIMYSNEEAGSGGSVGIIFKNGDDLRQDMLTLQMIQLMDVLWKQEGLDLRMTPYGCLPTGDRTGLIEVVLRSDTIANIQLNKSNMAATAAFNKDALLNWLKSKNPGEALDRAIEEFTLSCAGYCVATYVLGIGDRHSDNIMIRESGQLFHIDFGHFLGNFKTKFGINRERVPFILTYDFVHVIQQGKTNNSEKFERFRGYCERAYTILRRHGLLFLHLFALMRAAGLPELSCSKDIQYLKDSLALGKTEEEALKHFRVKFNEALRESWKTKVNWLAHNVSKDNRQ

[4] = molecular target: CYP3A4 (Homo sapiens, UniProt P08684); assay: Single point CYP450 inhibition test; type: in vitro ADME
Sequence of CYP3A4 (P08684 whole entry): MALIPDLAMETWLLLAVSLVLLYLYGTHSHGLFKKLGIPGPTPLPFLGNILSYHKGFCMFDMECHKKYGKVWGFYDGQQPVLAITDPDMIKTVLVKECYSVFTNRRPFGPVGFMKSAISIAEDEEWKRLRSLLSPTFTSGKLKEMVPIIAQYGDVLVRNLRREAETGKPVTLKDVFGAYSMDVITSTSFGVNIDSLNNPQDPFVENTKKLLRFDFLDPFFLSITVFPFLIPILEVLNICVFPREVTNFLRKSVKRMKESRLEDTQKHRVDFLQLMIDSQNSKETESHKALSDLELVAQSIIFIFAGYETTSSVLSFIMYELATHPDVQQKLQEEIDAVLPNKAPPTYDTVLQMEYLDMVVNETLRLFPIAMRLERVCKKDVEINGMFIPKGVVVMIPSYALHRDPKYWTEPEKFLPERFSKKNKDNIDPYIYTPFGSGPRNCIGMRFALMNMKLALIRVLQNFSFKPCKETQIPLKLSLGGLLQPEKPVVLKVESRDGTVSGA

[5] = molecular target: PI3K-C2β (Homo sapiens, UniProt O00750); assay: Ambit KINOMEscan; type: binding
Sequence of PI3K-C2β (O00750 whole entry): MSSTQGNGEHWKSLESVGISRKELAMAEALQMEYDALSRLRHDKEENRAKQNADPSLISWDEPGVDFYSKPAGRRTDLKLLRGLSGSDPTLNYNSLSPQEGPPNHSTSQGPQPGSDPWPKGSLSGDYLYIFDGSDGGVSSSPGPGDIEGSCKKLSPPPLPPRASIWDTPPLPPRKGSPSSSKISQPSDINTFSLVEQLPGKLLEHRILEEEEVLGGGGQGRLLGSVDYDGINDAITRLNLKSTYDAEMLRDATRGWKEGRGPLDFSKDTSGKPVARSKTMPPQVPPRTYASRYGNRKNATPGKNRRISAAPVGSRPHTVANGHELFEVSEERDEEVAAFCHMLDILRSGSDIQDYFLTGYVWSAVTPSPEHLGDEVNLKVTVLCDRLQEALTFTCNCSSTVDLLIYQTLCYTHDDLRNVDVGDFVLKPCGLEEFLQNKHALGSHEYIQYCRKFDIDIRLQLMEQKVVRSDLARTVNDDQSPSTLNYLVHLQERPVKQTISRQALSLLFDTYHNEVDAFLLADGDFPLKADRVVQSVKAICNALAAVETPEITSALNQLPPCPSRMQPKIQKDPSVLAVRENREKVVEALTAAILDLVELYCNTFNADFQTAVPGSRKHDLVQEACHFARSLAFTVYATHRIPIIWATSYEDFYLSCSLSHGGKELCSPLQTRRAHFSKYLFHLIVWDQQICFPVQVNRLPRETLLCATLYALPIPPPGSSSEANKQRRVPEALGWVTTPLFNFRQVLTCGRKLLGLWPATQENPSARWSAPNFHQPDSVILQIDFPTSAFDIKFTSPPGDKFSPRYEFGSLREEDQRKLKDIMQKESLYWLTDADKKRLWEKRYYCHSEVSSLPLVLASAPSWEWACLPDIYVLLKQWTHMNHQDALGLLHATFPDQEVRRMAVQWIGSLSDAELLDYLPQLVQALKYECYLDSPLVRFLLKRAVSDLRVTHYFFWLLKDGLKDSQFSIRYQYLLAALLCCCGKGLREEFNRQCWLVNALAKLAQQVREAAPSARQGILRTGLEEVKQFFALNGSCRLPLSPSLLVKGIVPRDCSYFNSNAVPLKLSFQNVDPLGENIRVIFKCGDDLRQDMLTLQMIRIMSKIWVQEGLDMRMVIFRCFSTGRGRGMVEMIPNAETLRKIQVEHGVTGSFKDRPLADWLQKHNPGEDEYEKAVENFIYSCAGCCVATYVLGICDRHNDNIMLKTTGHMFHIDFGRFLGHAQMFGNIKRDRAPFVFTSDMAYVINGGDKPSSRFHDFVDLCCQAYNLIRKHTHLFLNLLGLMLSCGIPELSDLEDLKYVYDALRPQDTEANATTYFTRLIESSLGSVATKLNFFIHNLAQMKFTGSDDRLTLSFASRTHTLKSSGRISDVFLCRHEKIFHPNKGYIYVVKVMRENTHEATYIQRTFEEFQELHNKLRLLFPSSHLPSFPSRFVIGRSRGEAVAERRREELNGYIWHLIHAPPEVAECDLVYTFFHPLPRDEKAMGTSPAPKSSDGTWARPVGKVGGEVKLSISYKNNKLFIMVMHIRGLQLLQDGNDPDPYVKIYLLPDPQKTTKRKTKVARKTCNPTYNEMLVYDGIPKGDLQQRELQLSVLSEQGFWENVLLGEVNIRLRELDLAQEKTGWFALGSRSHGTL

[6] = molecular target: P110α/P85α (Homo sapiens, UniProt P42336); assay: Ambit KINOMEscan; type: binding
Sequence of P110α/P85α (P42336 whole entry): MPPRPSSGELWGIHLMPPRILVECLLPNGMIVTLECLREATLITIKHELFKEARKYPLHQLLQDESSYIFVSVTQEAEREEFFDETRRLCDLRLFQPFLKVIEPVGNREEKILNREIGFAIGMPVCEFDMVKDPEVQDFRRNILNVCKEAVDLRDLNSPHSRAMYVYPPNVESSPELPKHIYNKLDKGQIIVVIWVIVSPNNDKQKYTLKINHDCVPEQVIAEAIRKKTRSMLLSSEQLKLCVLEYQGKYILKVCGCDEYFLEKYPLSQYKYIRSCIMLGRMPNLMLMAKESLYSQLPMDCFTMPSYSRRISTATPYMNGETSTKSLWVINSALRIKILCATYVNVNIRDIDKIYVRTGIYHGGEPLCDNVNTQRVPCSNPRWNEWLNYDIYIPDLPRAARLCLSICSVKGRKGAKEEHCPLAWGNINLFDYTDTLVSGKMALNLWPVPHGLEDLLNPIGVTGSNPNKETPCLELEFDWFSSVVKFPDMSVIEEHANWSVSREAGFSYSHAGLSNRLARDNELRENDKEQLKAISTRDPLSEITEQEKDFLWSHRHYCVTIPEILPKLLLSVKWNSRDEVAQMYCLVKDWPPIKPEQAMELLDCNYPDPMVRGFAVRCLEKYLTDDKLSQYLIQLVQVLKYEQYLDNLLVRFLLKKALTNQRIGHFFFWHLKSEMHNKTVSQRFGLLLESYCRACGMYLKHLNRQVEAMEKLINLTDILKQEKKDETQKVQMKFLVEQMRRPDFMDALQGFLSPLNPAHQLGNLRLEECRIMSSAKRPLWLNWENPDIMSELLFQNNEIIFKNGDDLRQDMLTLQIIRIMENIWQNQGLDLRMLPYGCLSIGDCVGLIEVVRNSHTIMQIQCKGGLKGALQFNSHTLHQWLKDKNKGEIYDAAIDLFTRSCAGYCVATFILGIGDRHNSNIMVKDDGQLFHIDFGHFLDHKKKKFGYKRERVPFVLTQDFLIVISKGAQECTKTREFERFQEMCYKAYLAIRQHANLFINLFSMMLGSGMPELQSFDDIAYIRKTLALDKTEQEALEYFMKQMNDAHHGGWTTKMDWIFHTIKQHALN

[7] = molecular target: P110γ (Homo sapiens, UniProt P48736); assay: Ambit KINOMEscan; type: binding
Sequence of P110γ (P48736 whole entry): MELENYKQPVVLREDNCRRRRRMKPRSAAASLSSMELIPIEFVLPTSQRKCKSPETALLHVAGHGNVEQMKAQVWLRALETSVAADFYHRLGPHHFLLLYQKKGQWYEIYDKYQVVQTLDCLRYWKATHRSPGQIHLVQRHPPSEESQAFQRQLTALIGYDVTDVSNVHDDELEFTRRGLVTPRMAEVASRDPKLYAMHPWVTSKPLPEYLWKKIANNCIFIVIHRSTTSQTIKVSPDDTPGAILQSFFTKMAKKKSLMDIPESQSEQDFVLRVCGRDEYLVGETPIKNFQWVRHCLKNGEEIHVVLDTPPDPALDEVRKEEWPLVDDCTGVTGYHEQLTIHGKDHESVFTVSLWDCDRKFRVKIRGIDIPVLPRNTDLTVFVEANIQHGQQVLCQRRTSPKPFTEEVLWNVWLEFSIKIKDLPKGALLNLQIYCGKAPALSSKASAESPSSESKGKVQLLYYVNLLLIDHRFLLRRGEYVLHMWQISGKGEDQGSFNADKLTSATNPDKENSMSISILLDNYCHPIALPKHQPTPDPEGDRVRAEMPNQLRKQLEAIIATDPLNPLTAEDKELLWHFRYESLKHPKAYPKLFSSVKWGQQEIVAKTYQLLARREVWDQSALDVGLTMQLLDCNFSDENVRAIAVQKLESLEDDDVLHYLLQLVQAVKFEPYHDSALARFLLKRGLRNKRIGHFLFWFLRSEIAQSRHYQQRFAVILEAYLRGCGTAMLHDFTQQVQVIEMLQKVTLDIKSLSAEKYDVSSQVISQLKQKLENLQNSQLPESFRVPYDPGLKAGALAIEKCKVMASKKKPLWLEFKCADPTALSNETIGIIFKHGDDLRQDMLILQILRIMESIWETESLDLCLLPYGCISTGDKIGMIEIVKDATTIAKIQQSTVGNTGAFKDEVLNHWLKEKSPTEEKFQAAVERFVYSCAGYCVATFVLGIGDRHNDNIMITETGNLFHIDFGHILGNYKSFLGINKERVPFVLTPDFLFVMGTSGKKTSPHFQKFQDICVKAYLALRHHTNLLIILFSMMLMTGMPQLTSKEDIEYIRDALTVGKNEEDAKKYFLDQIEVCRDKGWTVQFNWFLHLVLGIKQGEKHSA

[8] = molecular target: mTOR (Homo sapiens, UniProt P42345); assay: Ambit KINOMEscan; type: binding
[9] = test system: U87-MG mouse xenograft; details: cited from earlier work
[10] = test system: 450 kinases; details: 450 kinases profiled by KINOMEscan; cited from earlier work

Sequence of CYP2D6 (P10635 whole entry): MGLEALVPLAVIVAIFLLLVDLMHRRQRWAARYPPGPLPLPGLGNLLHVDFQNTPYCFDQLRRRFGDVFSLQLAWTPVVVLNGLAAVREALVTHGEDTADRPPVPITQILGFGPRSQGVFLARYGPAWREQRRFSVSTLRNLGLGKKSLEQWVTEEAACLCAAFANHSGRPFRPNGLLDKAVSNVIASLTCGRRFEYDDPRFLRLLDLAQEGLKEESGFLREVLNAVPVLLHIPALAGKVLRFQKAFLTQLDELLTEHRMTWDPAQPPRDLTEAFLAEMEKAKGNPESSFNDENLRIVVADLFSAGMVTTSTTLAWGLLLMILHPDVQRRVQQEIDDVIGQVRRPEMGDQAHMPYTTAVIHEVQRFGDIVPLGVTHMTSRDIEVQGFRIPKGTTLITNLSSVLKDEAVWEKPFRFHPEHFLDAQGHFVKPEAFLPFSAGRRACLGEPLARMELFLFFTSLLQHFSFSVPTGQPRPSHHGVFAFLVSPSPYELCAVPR

CYP2D6 % inhibition ([1]; 10 µM) | inhibition at 10 µM [1] | Ambit score [3] | inhibition at 10 µM [4] | Ambit score [5] | Ambit score [6] | Ambit score [7] | Ambit score [8] | SMILES | blocked phosphorylation of S6K (T389) [2] | blocked phosphorylation of pAkt (S473) [2] | anti-tumor activity [9] | protein kinase off-targets [10]
51% | > 50% | 2% | > 60% | 0.65% | 0.1% | 0.05% | 0% | CN1CCC(NC(=O)c2ccc(-c3ccc(-n4c(=O)ccc5cnc6ccc(-c7cnc8ccccc8c7)cc6c54)cc3C(F)(F)F)cc2)CC1 [Compound 10] | 80–90% | 80–90% | – | –
– | 24% | – | – | – | – | – | – | Cc1cc(-n2c(=O)ccc3cnc4ccc(-c5cnc6ccccc6c5)cc4c32)ccc1-c1ccc(C(=O)NC2CCN(C)CC2)cc1 [Compound 19] | – | – | – | –
– | – | – | – | – | – | – | – | CCC(=O)N1CCN(c2ccc(-n3c(=O)ccc4cnc5ccc(-c6cnc7ccccc7c6)cc5c43)cc2C(F)(F)F)CC1 [Torin1] | – | – | exhibited anti-tumor activity | no other significant protein kinase off-targets

Source: paper PMC3929239 (Bioorganic & medicinal chemistry letters, 2011)
